Data taken from patent US4146717A, “Nitroquinazolinone compounds having antiviral properties” (priority 1974, dated 1979).
≈ marks a conversion by molar mass, not a printed value. Where two headings read alike, the source gives them in different places.

Experiments:
[1] = Toxic effects in chick embryo fibroblast cell culture (minimum toxic concentration); settings: chicken, chick embryo fibroblast cells
[2] = test system: vaccinia virus IHD strain; experiment: microbe, parasite or virus in culture; type: cell-based; settings: for MIC: Orthopoxvirus vaccinia, in Gallus gallus, 72 h, read-out: minimum inhibitory concentration (MIC); for Chemotherapeutic index (MTC/MIC): chick embryo fibroblast cells, 4320 min
[3] = test system: adeno virus type 8 Kanehisa strain; settings: concentration 40; 5th day after infection; non-medicated control 512
[4] = test system: Influenza virus NWS strain; type: in vivo, mice (ICR strain); settings: 14 days observation, control 1/8
[5] = test system: parainfluenza virus type 1, Sendai virus; experiment: Effects on parainfluenza virus multiplication in chick embryo fibroblast cell culture (haemagglutinating titration); type: cell-based; settings: 2 days at 37° C, non-medicated control 32
Method: Effects on parainfluenza virus multiplication in chick embryo fibroblast cell culture.
A general procedure of haemagglutinating titration was employed. Monolayers of chick embryo fibroblast cells were prepared by the same procedure as described in Example 12. Parainfluenza virus type 1, haemagglutinating virus of Japan (HVJ), so called Sendai virus was challenged on 3rd day monolayer cell sheet. […] After 2 days' incubation at 37° C., the cells were harvested, disrupted by freezing and thawing and centrifuged. The haemagglutinating titre of the supernatant was assayed using 1% guinea pig red blood cell as usual.
cells: chick embryo fibroblast cell
virus: parainfluenza virus type 1, Sendai virus

[6] = test system: vaccinia virus IHD strain; type: in vivo, mice (ICR strain); settings: -2 to 100 hours after virus challenge, 12 days observation; for Survival rate, SC: 100 mg/kg subcutaneously; for Survival rate, PO: 100 mg/kg orally
[7] = Acute toxicity in mice, intraperitoneal; type: in vivo, mice (ddN strain); settings: for No. of survivors/No. of tested: 7 days observation
Description: The compounds of the present invention are not only very effective but also show no side effects. For example, acute toxicity of the present compound by the intraperitoneal injection in mice is remarkably lower than Methisazone as shown in Table III.
animals: male mice weighing 17 to 20 g of ddN strain
administration: intraperitoneally, suspension in 0.5% carboxymethyl
observation period: 7 days after an administration

[8] = test system: herpes simplex virus HF strain; experiment: Effects on herpes simplex virus multiplication in chick embryo fibroblast cell culture (plaque reduction); type: cell-based; settings: 5 μg/ml, 4 days at 37° C; for Average number of plaques: non-medicated control 45; for inhibition at 5 µg/mL: Fibroblast, 96 h, read-out: Percentage inhibition of occurrences of plaques
Method: Effects on herpes simplex virus multiplication in chick embryo fibroblast cell culture.
A general procedure of plaque-reduction method was employed. Monolayers of chick embryo fibroblast cells were prepared by a general procedure, i.e., trypsinization of 10 day old chick embryo and then 2 days' incubation in Eagle's minimum essential medium (Eagle's MEM) containing a 5% calf serum at 37° C. in a plaque tube. Then, growth medium was discarded and about 100 plaque forming units (PFU) of herpes simplex virus HF strain per plaque tube were challenged. […] After 4 day's incubation at 37° C., the number of plaques was counted and compared with the controlled plaque tube without test compounds.
cells: chick embryo fibroblast cells
virus: herpes simplex virus HF strains
observation: by counting the number of plaques after 4 days' incubation

[9] = cited from earlier work; for undesirable side effects: clinical
[10] = test system: DNA type viruses such as herpes simplex and vaccinia; settings: clinical use; cited from earlier work

## O=c1nc(-c2ccccc2)c2cc([N+](=O)[O-])ccc2n1Cc1ccco1 [compound 13]
[1]
  MCC at 72 h: 100 µg/mL
[2]
  MIC: 1 µg/mL (≈ 2.88 µM)
[2]; vaccinia virus
  Chemotherapeutic index (MTC/MIC): 100

## O=c1nc(-c2ccccc2)c2cc([N+](=O)[O-])ccc2n1CC1CCCCCCC1 [compound 4]
[1]
  MCC at 72 h: 100 µg/mL
[2]
  MIC: 0.1 µg/mL (≈ 0.255 µM)
[2]; vaccinia virus
  Chemotherapeutic index (MTC/MIC): 1000

## O=c1nc(-c2ccccc2)c2cc([N+](=O)[O-])ccc2n1Cc1ccccc1Cl [compound 8]
[1]
  MCC at 72 h: 5 µg/mL
[2]
  MIC: 0.25 µg/mL (≈ 0.638 µM)
[2]; vaccinia virus
  Chemotherapeutic index (MTC/MIC): 20

## O=c1nc(-c2ccccc2)c2cc([N+](=O)[O-])ccc2n1CC1CCCCO1 (centres unmarked) [compound 5]
[3]
  Haemagglutinating titre: 64
[4]; 10 mg/kg subcutaneously
  Survival rate: 4/8
[4]; 50 mg/kg subcutaneously
  Survival rate: 6/8
[1]
  MCC at 72 h: > 100 µg/mL
[5]; 12.5 μg/ml
  Haemagglutinating titre: 4
[5]; 25 μg/ml
  Haemagglutinating titre: < 2
[6]
  Survival rate, SC: 100%
[7]; 1000 mg/kg intraperitoneally
  No. of survivors/No. of tested: 5/5
[7]; 2000 mg/kg intraperitoneally
  No. of survivors/No. of tested: 4/5
[8]
  Average number of plaques: 9
  inhibition at 5 µg/mL: 80%
[2]
  MIC: 0.2 µg/mL (≈ 0.547 µM)
  Chemotherapeutic index (MTC/MIC): > 500

## O=c1nc(-c2ccccc2)c2cc([N+](=O)[O-])ccc2n1CC1CCCCC1 [compound 3]
[3]
  Haemagglutinating titre: 32
[1]
  MCC at 72 h: 100 µg/mL
[6]
  Survival rate, PO: 100%
  Survival rate, SC: 100%
[2]
  MIC: 0.1 µg/mL (≈ 0.275 µM)
[2]; vaccinia virus
  Chemotherapeutic index (MTC/MIC): 1000

## O=c1[nH]c(=O)n([C@H]2C[C@H](O)[C@@H](CO)O2)cc1I [Idoxuridine]
[9]; clinical use
  toxicity limiting use: it can only be used by topical application because of its toxicity
[10]
  antiviral spectrum: only effective against DNA type viruses such as herpes simplex and vaccinia

## O=c1nc(-c2ccccc2)c2cc([N+](=O)[O-])ccc2n1C1CCCCC1 [compound 2]
[1]
  MCC at 72 h: 100 µg/mL
[5]; 12.5 μg/ml
  Haemagglutinating titre: 4
[5]; 25 μg/ml
  Haemagglutinating titre: 2
[2]
  MIC: 0.1 µg/mL (≈ 0.286 µM)
[2]; vaccinia virus
  Chemotherapeutic index (MTC/MIC): 1000

## O=c1nc(C2CCCCC2)c2cc([N+](=O)[O-])ccc2n1CC1CC1 [compound 21]
[1]
  MCC at 72 h: 50 µg/mL
[2]
  MIC: 5 µg/mL (≈ 15.3 µM)
[2]; vaccinia virus
  Chemotherapeutic index (MTC/MIC): 10

## O=c1nc(-c2ccccc2)c2cc([N+](=O)[O-])ccc2n1Cc1cccs1 [compound 12]
[1]
  MCC at 72 h: 50 µg/mL
[2]
  MIC: 0.6 µg/mL (≈ 1.65 µM)
[2]; vaccinia virus
  Chemotherapeutic index (MTC/MIC): 80

## CCOCCn1c(=O)nc(-c2ccccc2)c2cc([N+](=O)[O-])ccc21 [compound 19]
[1]
  MCC at 72 h: > 100 µg/mL
[2]
  MIC: 5 µg/mL (≈ 14.7 µM)
[2]; vaccinia virus
  Chemotherapeutic index (MTC/MIC): > 20

## O=c1nc(-c2cccs2)c2cc([N+](=O)[O-])ccc2n1CC1CCCCO1 (centres unmarked) [compound 10]
[1]
  MCC at 72 h: > 100 µg/mL
[2]
  MIC: 0.4 µg/mL (≈ 1.08 µM)
[2]; vaccinia virus
  Chemotherapeutic index (MTC/MIC): > 250

## O=c1nc(-c2ccccc2)c2cc([N+](=O)[O-])ccc2n1CCC1CCCCC1 [compound 15]
[1]
  MCC at 72 h: > 100 µg/mL
[2]
  MIC: 5 µg/mL (≈ 13.2 µM)
[2]; vaccinia virus
  Chemotherapeutic index (MTC/MIC): > 20

## O=c1nc(-c2ccccc2)c2cc([N+](=O)[O-])ccc2n1CC1CC1 [compound 18]
[1]
  MCC at 72 h: > 100 µg/mL
[2]
  MIC: 5 µg/mL (≈ 15.6 µM)
[2]; vaccinia virus
  Chemotherapeutic index (MTC/MIC): > 20

## O=c1nc(-c2ccccc2)c2cc([N+](=O)[O-])ccc2n1CC1CCCC1 [compound 7]
[1]
  MCC at 72 h: > 100 µg/mL
[2]
  MIC: 0.2 µg/mL (≈ 0.572 µM)
[2]; vaccinia virus
  Chemotherapeutic index (MTC/MIC): > 500

## O=c1nc(-c2ccccc2)c2cc([N+](=O)[O-])ccc2n1Cc1ccccn1 [compound 6]
[1]
  MCC at 72 h: 50 µg/mL
[2]
  MIC: 0.2 µg/mL (≈ 0.558 µM)
[2]; vaccinia virus
  Chemotherapeutic index (MTC/MIC): 250

## CCN(CC)C(=O)Cn1c(=O)nc(-c2ccccc2)c2cc([N+](=O)[O-])ccc21 [compound 17]
[1]
  MCC at 72 h: > 100 µg/mL
[2]
  MIC: 5 µg/mL (≈ 13.1 µM)
[2]; vaccinia virus
  Chemotherapeutic index (MTC/MIC): > 20

## O=c1nc(-c2ccccc2)c2cc([N+](=O)[O-])ccc2n1CC1CCCCCC1 [compound 1]
[1]
  MCC at 72 h: 100 µg/mL
[2]
  MIC: 0.1 µg/mL (≈ 0.265 µM)
[2]; vaccinia virus
  Chemotherapeutic index (MTC/MIC): 1000

## O=c1nc(-c2ccccc2Cl)c2cc([N+](=O)[O-])ccc2n1CC1CC1 [compound 20]
[1]
  MCC at 72 h: 50 µg/mL
[2]
  MIC: 5 µg/mL (≈ 14.1 µM)
[2]; vaccinia virus
  Chemotherapeutic index (MTC/MIC): 10

## CSCn1c(=O)nc(-c2ccccc2)c2cc([N+](=O)[O-])ccc21 [compound 22]
[1]
  MCC at 72 h: 50 µg/mL
[2]
  MIC: 5 µg/mL (≈ 15.3 µM)
[2]; vaccinia virus
  Chemotherapeutic index (MTC/MIC): 10

## NC12CC3CC(CC(C3)C1)C2 [Amantadine]
[9]
  undesirable side effects: severe side effect on central nervous system

## O=c1nc(-c2ccccc2)c2cc([N+](=O)[O-])ccc2n1Cc1ccccc1 [compound 11]
[1]
  MCC at 72 h: 25 µg/mL
[6]
  Survival rate, SC: 100%
[2]
  MIC: 0.6 µg/mL (≈ 1.68 µM)
[2]; vaccinia virus
  Chemotherapeutic index (MTC/MIC): 40

## O=c1nc(-c2ccccc2)c2cc([N+](=O)[O-])ccc2n1CC1CCCO1 (centres unmarked) [compound 14]
[3]
  Haemagglutinating titre: 32
[1]
  MCC at 72 h: > 100 µg/mL
[6]
  Survival rate, SC: 100%
[7]; 1000 mg/kg intraperitoneally
  No. of survivors/No. of tested: 5/5
[7]; 2000 mg/kg intraperitoneally
  No. of survivors/No. of tested: 4/5
[2]
  MIC: 1.25 µg/mL (≈ 3.56 µM)
[2]; vaccinia virus
  Chemotherapeutic index (MTC/MIC): > 80

## Cc1ccccc1Cn1c(=O)nc(-c2ccccc2)c2cc([N+](=O)[O-])ccc21 [compound 9]
[1]
  MCC at 72 h: 5 µg/mL
[8]
  Average number of plaques: 2
  inhibition at 5 µg/mL: 96%
[2]
  MIC: 0.25 µg/mL (≈ 0.673 µM)
[2]; vaccinia virus
  Chemotherapeutic index (MTC/MIC): 20

## CN1C(=O)C(=NNC(N)=S)c2ccccc21 [Methisazone, 1-methylindole-2,3-dione 3-thiosemicarbazone, reference compound]
[1]
  MCC at 72 h: 20 µg/mL
[9]
  undesirable side effects: severe vomiting, dermatitis and jaundice
[6]
  Survival rate, PO: 100%
  Survival rate, SC: 100%
[7]; 1000 mg/kg intraperitoneally
  No. of survivors/No. of tested: 3/5
[7]; 2000 mg/kg intraperitoneally
  No. of survivors/No. of tested: 0/5
[7]; mice of the acute toxicity test
  gastro-duodenal hemorrhage and intestinal ulceration: Severe gastro-duodenal hemorrhage and intestinal ulceration were observed in dead mice
[2]
  MIC: 5 µg/mL (≈ 21.3 µM)
[2]; vaccinia virus IHD strain, 1.1 × 10^4 PFU/tube, CPE after 3 days' incubation at 37° C
  minimum inhibitory concentration (MIC): 5 µg/mL (≈ 21.3 µM)
[2]; vaccinia virus
  Chemotherapeutic index (MTC/MIC): 4
